Source: article PMC12503906, “Novel Pyrazolo [1,5‐a]−1,3,5‐Triazine Derivatives as CDK7 Inhibitors: Synthesis and Biological Insights in Pancreatic Ductal Adenocarcinoma Models” (Chemmedchem, 2025)

Experiments:
Type in all cases: cell-based
PATU‐T [1] = assay: Annexin V apoptosis assay, PATU‐T; conditions: 1 × IC50
Description: In order to investigate the apoptotic properties of the compounds 1b and 1g, the Annexin V apoptosis assay was performed. Annexins are calcium‐dependent phospholipid binding proteins, which are able to bind to phosphatidylserine (PS). The externalization of PS residues on the outer membrane of apoptotic cells can be detected by Annexin V.
For this assay, cells were seeded in a 96‐well plate at a concentration of 13.5 × 10^3 and 4.5 × 10^3 /well respectively for the 24 and 72 h experiments. The next day cells were treated with compounds 1b and 1g at 1 × IC50 and 4 × IC50 concentrations. The apoptosis assay was performed 24 and 72 h post‐treatment following the BD Pharmingen FITC Annexin V Apoptosis Detection Kit I (BD Biosciences, 556,547). The supernatant was aspirated, and cells were washed with phosphate‐buffered saline (PBS). Cells were consequently treated with binding buffer BBA + Annexin V (1:100) and were incubated in the dark at RT for 10 min. The supernatant was removed, and the cells were washed with BBA (1:10). Cells were then incubated with BBA + PI (1:100) and were immediately read with the spectrophotometer at ex. 485/ em. 535. Two different programs were used to read the Annexin V and the PI absorbance. Lastly, 100 µL of PBS were added to each well before being fixed with TCA. This was followed by the SRB assay to standardize fluorescence data according to cell count. Data were exported into GraphPad Prism 10 for statistical analysis.

PATU‐T [2] = assay: Cell cycle analysis (FACS, PI staining), PATU‐T; conditions: for percentage of cells in the G2‐M phase: untreated 18.4%; for percentage of cells in the S phase: untreated 32.5%; for percentage of cells in the G0‐G1 phase: untreated 49.1%
Description: (§1) Modulation of the cell cycle was analyzed via flow cytometry. Cells (5 × 10^5 cells mL^− ^1) were seeded in 6‐well plates and were incubated at 37 °C overnight. Cells were treated with the compounds 1b and 1g at two different concentrations (1 × IC50 and 4 × IC50, according to each cell line) and were again incubated for 24 and 72 h. After treatment, cells were harvested with trypsin and were collected in specific fluorescence‐activated cell sorting (FACS) tubes. Cells were then washed with PBS and centrifuged at 1500 rpm for 5 min, in order to form a pellet. These pellets were fixed in 1 mL of ice‐cold 70% ethanol, added drop by drop during vortex, and placed in the refrigerator at 4 °C. After overnight incubation, the cells were washed twice with PBS, centrifuged (5 min at 1500 rpm), resuspended in 50 µL of RNase (100 µg mL^− ^1), and incubated for 30 min at 37 °C. Finally, 200 µL of propidium iodide solution (PI, 50 µg mL^− ^1) was added, and the cell distribution in the various phases of the cell cycle was analyzed via BD LSRFortessa Cell Analyzer. Data analysis was carried out with FACSdiva software (Becton Dickinson), while cell cycle distribution was determined using FCS express software.

Bax/Bcl‐2 [3] = assay: Bax/Bcl‐2 ratio by RT‐PCR, PATU‐T cells
Description: (§2) In order to understand modulation of downstream genes of CDK7, gene expression analysis by qPCR was performed in all cell lines. Cells (5 × 10^5/well) were seeded in 6‐well plates and treated with the compounds 1b and 1g at 1× and 4 × IC50 concentrations. Cell lysates were collected 24 h post‐treatment using 300 µL of TRIzol Reagent (Ambion, 15,596,018) per well. Total RNA was extracted by mixing 60 µL of chloroform to the samples, incubating for 3 min and centrifuging at 12,000 rcf for 15 min at 4 °C. The upper aqueous phase containing RNA was transferred to a new Eppendorf and mixed with 120 µL of cold isopropanol in order to allow the RNA to precipitate. Samples were incubated at RT for 10 min and were then centrifuged at 12,000 rcf for 10 min at 4 °C. The isopropanol was carefully removed, and the pellet was washed twice with 70% ETOH. Pellets were left to air dry and consequently resuspended in RNAse‐free water. Samples were left agitation on a thermomixer at 55 °C for 10 min at 600 rpm and were then quantified through NanoDrop technology (Thermo Scientific, NanoDrop One/One^c). RNA samples were stored at −80 °C.
(§3) In order to perform cDNA synthesis, the First Strand cDNA synthesis kit (Thermo Scientific, K1612) was used. The previously isolated RNA was mixed with 1 µL of oligo dT18 primer into a pcr tube. Nuclease free water was added to reach a final volume of 11 µL. Samples were centrifuged at 1200 rcf for 5 min and were then placed on a thermomixer at 65 °C for a few minutes. A master mix was prepared, including 4 µL of 5× reaction buffer, 1 µL of ribolock RNAse inhibitor, 2 µL of dntp mix (10 mM), and 2 µL of M‐mulv reverse transcriptase for each sample. In total 9 µL of master mix were added to each vial. Samples were centrifuged again and were finally synthesized, following a cycle of 60 min at 37 °C and 5 min at 70 °C. cDNA was now finally synthesized and could be stored at −20 °C. RT‐PCRs reactions were performed using SYBR Green (Bio‐Rad, 1,725,271) (5 µL per sample), primer mix (0.3 µM) (2 µL per sample), and cDNA (10 ng µL^− ^1) (3 µL per sample). […] RT‐PCR assays were carried out in a GeneAmp 5700 Sequence Detection System programmed to hold at 50 °C for 30 min, to hold at 95 °C for 10 min, and to complete 45 cycles of 95 °C for […] and 50 °C for 1 min. The genes that were investigated are shown in Table 5 , with their respective forward and reverse primer sequences.

PDAC3 = assay: Cell cycle analysis (FACS, PI staining), PDAC3; conditions: for percentage of cells in the G2‐M phase: untreated 13.3%; for percentage of cells in the S phase: untreated 36.7%; for percentage of cells in the G0‐G1 phase: untreated 50.0%
Description: as §1

Bax/Bcl‐2 [4] = assay: Bax/Bcl‐2 ratio by RT‐PCR, SUIT 2.28 cells
Description: as §2, §3

PANC‐1 = assay: Cell cycle analysis (FACS, PI staining), PANC‐1; conditions: for percentage of cells in the G2‐M phase: untreated 18.1%; for percentage of cells in the G0‐G1 phase: untreated 40.7%; for percentage of cells in the S phase: untreated 41.3%
Description: as §1

Row | SMILES | apoptotic index (PATU‐T [1]; 24 h) | apoptotic index (PATU‐T [1]; 72 h) | percentage of cells in the G2‐M phase (PATU‐T [2]; 1 × IC50, 24 h) [%] | percentage of cells in the S phase (PATU‐T [2]; 1 × IC50, 24 h) [%] | percentage of cells in the G0‐G1 phase (PATU‐T [2]; 1 × IC50, 24 h) [%] | percentage of cells in the G2‐M phase (PATU‐T [2]; 4 × IC50, 24 h) [%] | percentage of cells in the S phase (PATU‐T [2]; 4 × IC50, 24 h) [%] | percentage of cells in the G0‐G1 phase (PATU‐T [2]; 4 × IC50, 24 h) [%] | Bax/Bcl‐2 ratio PATU‐T (Bax/Bcl‐2 [3]; 1 × IC50, 24 h after treatment) | Bax/Bcl‐2 ratio PATU‐T (Bax/Bcl‐2 [3]; 4 × IC50, 24 h after treatment) | percentage of cells in the G2‐M phase (PDAC3; PDAC3, 1 × IC50, 24 h) [%] | percentage of cells in the G0‐G1 phase (PDAC3; PDAC3, 1 × IC50, 24 h) [%] | percentage of cells in the G2‐M phase (PDAC3; PDAC3, 4 × IC50, 24 h) [%] | percentage of cells in the S phase (PDAC3; PDAC3, 4 × IC50, 24 h) [%] | percentage of cells in the G0‐G1 phase (PDAC3; PDAC3, 4 × IC50, 24 h) [%] | Bax/Bcl‐2 ratio SUIT 2.28 (Bax/Bcl‐2 [4]; 1 × IC50, 24 h after treatment) | Bax/Bcl‐2 ratio SUIT 2.28 (Bax/Bcl‐2 [4]; 4 × IC50, 24 h after treatment) | percentage of cells in the G2‐M phase (PANC‐1; PANC‐1, 1 × IC50, 24 h) [%] | percentage of cells in the G0‐G1 phase (PANC‐1; PANC‐1, 1 × IC50, 24 h) [%] | percentage of cells in the S phase (PANC‐1; PANC‐1, 1 × IC50, 24 h) [%] | also measured
1 | Cn1cc(-c2cc3ncnc(N)n3n2)c2cc(Br)ccc21 [Compound 1g, 7‐(5‐Bromo‐1‐methyl‐1H‐indol‐3‐yl)pyrazolo[1,5‐a][1,3,5]triazin‐4‐amine] | significantly increased apoptosis | not significant compared to control | 17.7 | 35.0 | 47.4 | 15.2 | 39.0 | 45.7 | 2.82 | 3.74 | 13.3 | 55.9 | 9.8 | 30.4 | 59.8 | 1.21 | 2.06 | 16.9 | 55.2 | 27.9 | percentage of cells in the S phase (PDAC3; PDAC3, 1 × IC50, 24 h): 30.8%; percentage of cells in the G2‐M phase (PANC‐1; PANC‐1, 4 × IC50, 24 h): 14.1%; percentage of cells in the G0‐G1 phase (PANC‐1; PANC‐1, 4 × IC50, 24 h): 56.9%; percentage of cells in the S phase (PANC‐1; PANC‐1, 4 × IC50, 24 h): 29.0%
2 | Nc1ncnc2cc(-c3c[nH]c4ccc(Br)cc34)nn12 [Compound 1b, 7‐(5‐Bromo‐1H‐indol‐3‐yl)pyrazolo[1,5‐a][1,3,5]triazin‐4‐amine] | did not show a significant apoptotic index | significant increase in apoptotic index | 14.9 | 49.6 | 35.5 | 10.1 | 60.0 | 30.0 | 4.43 | 4.03 | 11.1 | 44.0 | 6.9 | 51.6 | 41.6 | 1.07 | 1.45 | 12.2 | 55.0 | 32.7 | percentage of cells in the G2‐M phase (PANC‐1; PANC‐1, 4 × IC50, 24 h): 10.0%; percentage of cells in the G0‐G1 phase (PANC‐1; PANC‐1, 4 × IC50, 24 h): 62.8%; percentage of cells in the S phase (PANC‐1; PANC‐1, 4 × IC50, 24 h): 28.3%
